The text below walks through data of PubChem BioAssay (NCI).

For this experiment, the system named is MDA-MB-468 breast. The experiment in a line: NCI tumour cell line growth inhibition, 48 h.

“And” between values parts separate entries of the source, which are not always exact repeats. Equal values may be shown once.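 1) Cells in 96-well plates. 2) Compound, 48 h, 5 concentrations. 3) Linear interpolation between surrounding doses. 4) Unreached endpoint = highest concentration. The concentration for 50% growth inhibition is given as GI50. TGI is the concentration that stops growth completely.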 Where a SMILES comes first, the peptide text is derived from it. [ ]: non-standard residue; d: D form. The star is where a group is joined. Decanoyl = CCCCCCCCCC(=O)*; Leu(ol) = CC(C)C[C@H](N)CO; Iva = CC[C@](C)(N)C(=O)O; Aib = CC(C)(N)C(=O)O Where only a bound is given, the exact number is not on record here.

`Oc1ccc(C2c3ccccc3Oc3ccccc32)c2cccnc12`: the GI50 was 0.644 µM and the TGI was found to be 4.53 µM.

For `CCOC(=O)C#Cc1c(C(=O)OCC)nnn1Cc1ccc([N+](=O)[O-])cc1`, the GI50 was 1.96 µM and the TGI was 4.4 µM.

Consider `Oc1c(Cl)cc(Cl)cc1C(c1cc(Cl)cc(Cl)c1O)C(Cl)(Cl)Cl`, for which the GI50 was 2.17 µM and the TGI turned out to be 7.63 µM.

As for `CCC(=O)Nc1ccc(C)c(-c2ccc(C(=O)NCC3CC3)cc2)c1`, the GI50 is 14.9 µM and the TGI was > 25 µM.

For `O=C1C=CC(=O)N1c1cccc(N2C(=O)C=CC2=O)c1`, the GI50 was 1.88 µM and the TGI is 3.99 µM.

On to `CCc1ccc(C(=Nc2ccc(N(C)C(=O)CN3CCN(C)CC3)cc2)c2c(O)[nH]c3ccc(C(=O)OC)cc23)cc1`, for which the GI50 is 0.73 µM and the TGI was determined as 2.35 µM.

Regarding `C=C1C(=O)O[C@H]2[C@H]1CC/C(COC(=O)C(C)c1ccc(CC(C)C)cc1)=C\CC[C@@]1(C)O[C@@H]21` (stereo partly specified), the GI50 is 1.76 µM and the TGI is 3.79 µM.

On to `CC(=[N-])N1CCC[C@@H](Nc2c3ccccc3nc3ccccc23)C1.[Cl][Pt].[NH-]CCC[NH-]`, for which the GI50 is 0.128 µM and the TGI was determined as 0.901 µM.

Consider `O=C(N/N=C/c1ccc(O)cc1O)c1cccc(Nc2ccnc(C(F)(F)F)c2)c1`, for which the GI50 was 0.626 µM and the TGI was > 58.3 µM.

In the case of `Cc1cc(N2CCOCC2)nc(N(CCCNc2ccnc3cc(Cl)ccc23)Cc2ccco2)n1`, the GI50 was 2.21 µM and the TGI was determined as 7.33 µM.

Take `CC(CN(C)C)Oc1ccccc1NC1=C(Cl)C(=O)C(Nc2ccccc2OC(C)CN(C)C)=C(Cl)C1=O` (stereo unspecified): the GI50 was 0.163 µM and the TGI stood at 0.328 µM.

As for `Cc1ccc(NS(=O)(=O)c2cccc(C#N)c2)c2[nH]cc(C#N)c12`, the GI50 is 4.44 µM and the TGI is 58.2 µM.

Regarding `Clc1ccccc1CNc1c2ccccc2nc2ccccc12`, the GI50 was 1.12 µM and the TGI was found to be 3.04 µM.

As to `CCCN(CCC)c1ccc(/C=N/NC(=O)c2cccnc2)c(OC)c1`, the GI50 is 6.22 µM and the TGI came out at 58.9 µM.

Take `Cc1cc(-c2ccccn2)cc(C)c1/C=C/c1cncc(-c2nn[nH]n2)c1`: the GI50 is > 25 µM and the TGI was > 25 µM.

Take `O=[N+]([O-])c1cc(C(F)(F)F)ccc1Sc1ccc(C(F)(F)F)cc1[N+](=O)[O-]`: the GI50 was 3.67 µM and the TGI was > 100 µM.

Consider `CN1CCN(c2ccc(NC(=O)c3cncnc3Nc3ccc(OCc4ccccn4)c(Cl)c3)cc2)CC1`, for which the GI50 is 3.88 µM and the TGI worked out at 9.39 µM.

With `CCOC(=O)c1ccc(NC2=C(Cl)C(=O)c3nc(C)ccc3C2=O)cc1`, the GI50 is 1.66 µM and the TGI amounted to 3.54 µM.

Consider `CCCCCCCCCC(=O)N[C@@](C)(CC)C(=O)N1CCC[C@H]1C(=O)N[C@@H](CC(C)C)C(=O)N[C@@](C)(CC)C(=O)N[C@@H](CCC(N)=O)C(=O)N[C@H](CCC(N)=O)C(=O)NC(C)(C)C(=O)NC(C)(C)C(=O)N[C@@H](CCC(N)=O)C(=O)N[C@H](CC(C)C)C(=O)N[C@H](CO)CC(C)C` (Decanoyl-[Iva]PL[Iva]Q[dQ][Aib][Aib]Q[dL][Leu(ol)]), for which the GI50 is 1.77 µM and the TGI came to 3.49 µM.

As to `O=C(/C=C/C12c3ccccc3C(c3ccccc31)C1C(=O)NC(=O)C12)c1ccc(F)cc1` (stereo unspecified), the GI50 was 1.99 µM and the TGI is 4.1 µM.

`OCCNc1nc(Nc2ccc(Cl)c(Cl)c2)nc2ccccc12`: the GI50 is 1.83 µM and the TGI was found to be 5.3 µM.

In the case of `Nc1ccc(-c2cccs2)cc1NC(=O)c1ccc(CCCC(=O)Nc2ccc(C3CC3N)cc2)cc1` (stereo unspecified), the GI50 is 1.9 µM and the TGI turned out to be 4.37 µM.

As to `CC([C@H]1CCC2C3CCC4C[C@@H](N)CC[C@]4(C)C3CC[C@@]21C)N(C)C` (stereo partly specified), the GI50 is 1.57 µM and the TGI is 4.83 µM.

In the case of `O=C1/C(=C/c2ccc(Cl)cc2)CCC/C1=C\c1ccc(Cl)cc1`, the GI50 was 3.08 µM and the TGI was determined as 9.21 µM.

Consider `COc1cc(-c2csc(NC(=O)Nc3ccc(C(F)(F)F)cc3)n2)cc(OC)c1OC`, for which the GI50 is 1.72 µM and the TGI is 5.71 µM.

`C[N+](C)(C)CC(=O)N/N=C(\C(=O)NC1=C(Cl)C(=O)c2ccccc2C1=O)C(C#N)c1nc(-c2ccc([N+](=O)[O-])cc2)cs1` (stereo unspecified): the GI50 is 3.89 µM and the TGI came to 16 µM.

Turning to `CC1(C)NCCC[C@]2(C)[C@H]3CC[C@@H]4[C@H]5[C@H](C(=O)/C=C/c6ccccn6)CC[C@]5(CO)CC[C@@]4(C)[C@]3(C)CC[C@@H]12`, the GI50 was 2.08 µM and the TGI worked out at 4.77 µM.

On to `COc1cc2nccc(Oc3ccc(NC(=O)Nc4cc(C)on4)c(Cl)c3)c2cc1OC`, for which the GI50 was 2.34 µM and 2.93 µM; the TGI was 8.09 µM and > 10 µM.

Turning to `NS(=O)(=O)NCCNc1nonc1C(=Nc1ccc(F)c(Br)c1)NO`, the GI50 was 23.5 µM and the TGI is 76.5 µM.

On to `C/C(O)=C(\C#N)C(=O)Nc1ccc(C(F)(F)F)cc1`, for which the GI50 is 37.2 µM and the TGI was > 100 µM.

For the compound `CC1(N)CCN(c2cnc(-c3cccc(Cl)c3Cl)c(N)n2)CC1`, the GI50 was 2.58 µM and the TGI came out at 17.2 µM.

For `Cc1cc2c(C(N)=O)c(N)n(-c3c(C)ccc(O)c3C)c2nc1C`, the GI50 is 8.69 µM and the TGI was determined as 29.7 µM.

As for `Cc1ccc(NC(=O)CSc2nnc3n(Cc4ccccc4)c(=O)c4c(C)c(C(N)=O)sc4n23)cc1`, the GI50 was 18.6 µM and the TGI was > 100 µM.

Take `O=C(O)c1c(=O)cccc2ssc12`: the GI50 was 2.14 µM and the TGI was determined as 4.38 µM.

Consider `N#C/C(=C\c1ccc(Br)cc1)n1nnc2cc(Cl)c(Cl)cc21`, for which the GI50 is 2.15 µM and the TGI is 5.13 µM.

Turning to `CCn1c(-c2nonc2N)nc2c(C#CC(C)(C)O)ncc(OC[C@H]3CCCNC3)c21`, the GI50 was 0.0872 µM and the TGI is 18.9 µM.

`COC(=O)c1ccc(NC2=C(Cl)C(=O)C(C)=C(C)C2=O)cc1`: the GI50 is 1.49 µM and the TGI stood at 3.1 µM.

In the case of `CC(=O)O[C@H]1[C@@H]2OC(=O)C(CSc3ccccc3)[C@@H]2C[C@H]2O[C@]2(C)CC/C=C(\C)CCC[C@@H]1C` (stereo partly specified), the GI50 is 1.46 µM and the TGI was found to be 3.62 µM.

In the case of `C=C(CO)[C@@H]1CC[C@]2(COC3CCCCO3)CC[C@]3(C)[C@H](CC[C@@H]4[C@@]5(C)C=C(C=O)C(=O)C(C)(C)[C@@H]5CC[C@]43C)[C@@H]12` (stereo partly specified), the GI50 is 0.244 µM and the TGI was 0.665 µM.

In the case of `COc1ccc2c(c1)C(=O)/C(=C/c1ccc([N+](=O)[O-])o1)O2`, the GI50 is 0.818 µM and the TGI came out at 2.56 µM.

In the case of `C/C(=C\c1cc(C(F)(F)F)n(-c2ccc(N)cc2)n1)[C@@H]1C[C@@H]2O[C@]2(C)CCC[C@H](C)[C@H](O)[C@@H](C)C(=O)C(C)(C)[C@@H](O)CC(=O)O1`, the GI50 was 0.0336 µM and the TGI was found to be 0.231 µM.

As to `CC1=C(C(=O)Nc2cc(Cl)c3[nH]ncc3c2)C(c2ccc(C(F)(F)F)cc2)CC(=O)N1` (stereo unspecified), the GI50 is 8.02 µM and the TGI was > 25 µM.

As for `Cc1ccc(C(=O)/C(=C\c2ccc([N+](=O)[O-])cc2)S(=O)Cc2ccc(Cl)cc2)cc1` (stereo unspecified), the GI50 was 1.74 µM and the TGI is 3.44 µM.
